Measurements taken from US11420973B2, “Amide substituted indole compounds useful as TLR inhibitors” (BRISTOL-MYERS SQUIBB COMPANY, priority 2017, dated 2022).

Assays:
[1] = molecular target: human TLR7 (Homo sapiens (Human), UniProt Q9NYK1); assay: TLR7 inhibition reporter assay (HEK-Blue SEAP reporter, gardiquimod stimulation); format: cell-based; conditions: HEK-Blue cells overexpressing human TLR7, gardiquimod 7.5 μM
[2] = molecular target: human TLR8 (Homo sapiens (Human), UniProt Q9NR97); assay: TLR8 inhibition reporter assay (HEK-Blue SEAP reporter, R848 stimulation); conditions: read-out: TLR8 IC50; HEK-Blue cells overexpressing human TLR8, R848 15.9 μM, SEAP reporter;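 note: SEAP driven by IFN-β minimal promoter with NF-κB and AP-1 sites, 22 h incubation, compounds 0.05 nM–50 µM, inhibition scaled between agonist plus DMSO and reference inhibitor wells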
Description: HEK-Blue™-cells (Invivogen) overexpressing human TLR7, TLR8 or TLR9 receptors were used for screening inhibitors of these receptors using an inducible SEAP (secreted embryonic alkaline phosphatase) reporter gene under the control of the IFN-β minimal promoter fused to five NF-κB and AP-1-binding sites. Briefly, cells are seeded into Greiner 384 well plates (15000 cells per well for TLR7, 20,000 for TLR8 and 25,000 for TLR9) and then treated with test compounds in DMSO to yield a final dose response concentration range of 0.05 nM-50 μM. After a 30 minute compound pre-treatment at room temperature, the cells are then stimulated with a TLR7 ligand (gardiquimod at a final concentration of 7.5 μM), TLR8 ligand (R848 at a final concentration of 15.9 μM) or TLR9 ligand (ODN2006 at a final concentration of 5 nM) to activate NF-κB and AP-1 which induce the production of SEAP. After a 22 hour incubation at 37° C., 5% CO2, SEAP levels are determined with the addition of HEK-Blue™ Detection reagent (Invivogen), a cell culture medium that allows for detection of SEAP, according to manufacturer's specifications.

[3] = molecular target: human TLR9 (Homo sapiens (Human), UniProt Q9NR96); assay: TLR9 inhibition reporter assay (HEK-Blue SEAP reporter, ODN2006 stimulation); conditions: read-out: TLR9 IC50; HEK-Blue cells overexpressing human TLR9, ODN2006 5 nM, SEAP reporter;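 note: SEAP reporter under IFN-β minimal promoter with five NF-κB and AP-1 sites, 22 h incubation, compounds 0.05 nM–50 µM, inhibition relative to agonist plus DMSO versus known inhibitor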
Chain of human TLR9 (Q9NR96 26-1032): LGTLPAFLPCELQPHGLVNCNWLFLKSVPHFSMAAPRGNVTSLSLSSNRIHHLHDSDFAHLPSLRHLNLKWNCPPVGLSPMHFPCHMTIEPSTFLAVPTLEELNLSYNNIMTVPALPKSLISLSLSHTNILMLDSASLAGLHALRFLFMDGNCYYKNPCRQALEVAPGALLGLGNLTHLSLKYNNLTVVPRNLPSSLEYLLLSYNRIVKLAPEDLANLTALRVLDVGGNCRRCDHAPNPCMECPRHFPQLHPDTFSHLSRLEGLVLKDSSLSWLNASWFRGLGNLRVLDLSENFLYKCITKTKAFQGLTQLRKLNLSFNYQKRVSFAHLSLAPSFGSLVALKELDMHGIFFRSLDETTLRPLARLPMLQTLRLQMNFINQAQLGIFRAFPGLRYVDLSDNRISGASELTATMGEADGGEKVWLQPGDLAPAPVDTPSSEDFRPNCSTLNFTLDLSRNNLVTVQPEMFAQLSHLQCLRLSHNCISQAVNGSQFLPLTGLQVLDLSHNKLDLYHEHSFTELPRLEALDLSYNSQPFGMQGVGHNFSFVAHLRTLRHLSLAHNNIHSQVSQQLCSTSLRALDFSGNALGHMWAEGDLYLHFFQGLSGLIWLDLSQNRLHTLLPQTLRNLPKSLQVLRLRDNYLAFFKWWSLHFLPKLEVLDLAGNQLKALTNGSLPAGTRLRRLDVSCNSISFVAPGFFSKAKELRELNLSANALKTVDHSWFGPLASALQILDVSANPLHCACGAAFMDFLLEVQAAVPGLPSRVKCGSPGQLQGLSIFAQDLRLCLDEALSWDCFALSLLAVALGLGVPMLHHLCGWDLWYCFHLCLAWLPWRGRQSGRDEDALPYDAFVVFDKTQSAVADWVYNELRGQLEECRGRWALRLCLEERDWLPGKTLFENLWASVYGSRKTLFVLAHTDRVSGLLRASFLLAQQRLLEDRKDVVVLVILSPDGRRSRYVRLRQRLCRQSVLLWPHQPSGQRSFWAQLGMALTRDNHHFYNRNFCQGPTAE

Chain of human TLR8 (Q9NR97 27-1041): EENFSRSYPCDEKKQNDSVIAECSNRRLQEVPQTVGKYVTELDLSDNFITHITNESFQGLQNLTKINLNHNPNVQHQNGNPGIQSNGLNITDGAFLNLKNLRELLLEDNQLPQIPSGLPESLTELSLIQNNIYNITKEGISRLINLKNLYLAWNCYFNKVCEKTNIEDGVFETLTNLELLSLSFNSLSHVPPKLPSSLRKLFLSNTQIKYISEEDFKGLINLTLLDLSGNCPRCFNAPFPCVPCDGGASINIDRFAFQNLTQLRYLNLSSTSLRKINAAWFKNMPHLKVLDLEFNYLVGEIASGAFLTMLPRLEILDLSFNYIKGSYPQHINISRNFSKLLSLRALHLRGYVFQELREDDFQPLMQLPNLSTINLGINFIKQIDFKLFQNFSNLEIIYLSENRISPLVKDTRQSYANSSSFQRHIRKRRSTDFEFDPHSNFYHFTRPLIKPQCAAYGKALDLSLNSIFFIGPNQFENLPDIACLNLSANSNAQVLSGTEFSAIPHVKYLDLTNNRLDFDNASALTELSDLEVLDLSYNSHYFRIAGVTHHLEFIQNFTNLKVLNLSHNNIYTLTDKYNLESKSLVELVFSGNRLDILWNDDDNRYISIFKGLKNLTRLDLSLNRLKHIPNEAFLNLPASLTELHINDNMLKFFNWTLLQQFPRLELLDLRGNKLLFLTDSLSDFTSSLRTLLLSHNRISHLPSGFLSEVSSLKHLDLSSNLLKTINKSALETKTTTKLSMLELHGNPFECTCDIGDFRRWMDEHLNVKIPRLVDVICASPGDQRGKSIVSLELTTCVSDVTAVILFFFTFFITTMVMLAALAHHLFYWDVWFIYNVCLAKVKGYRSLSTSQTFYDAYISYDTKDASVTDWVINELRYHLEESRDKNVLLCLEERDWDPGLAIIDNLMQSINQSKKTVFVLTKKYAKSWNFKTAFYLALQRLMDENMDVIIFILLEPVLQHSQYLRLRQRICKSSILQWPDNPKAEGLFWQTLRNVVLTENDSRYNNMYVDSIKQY
Chain of human TLR7 (Q9NYK1 27-1049): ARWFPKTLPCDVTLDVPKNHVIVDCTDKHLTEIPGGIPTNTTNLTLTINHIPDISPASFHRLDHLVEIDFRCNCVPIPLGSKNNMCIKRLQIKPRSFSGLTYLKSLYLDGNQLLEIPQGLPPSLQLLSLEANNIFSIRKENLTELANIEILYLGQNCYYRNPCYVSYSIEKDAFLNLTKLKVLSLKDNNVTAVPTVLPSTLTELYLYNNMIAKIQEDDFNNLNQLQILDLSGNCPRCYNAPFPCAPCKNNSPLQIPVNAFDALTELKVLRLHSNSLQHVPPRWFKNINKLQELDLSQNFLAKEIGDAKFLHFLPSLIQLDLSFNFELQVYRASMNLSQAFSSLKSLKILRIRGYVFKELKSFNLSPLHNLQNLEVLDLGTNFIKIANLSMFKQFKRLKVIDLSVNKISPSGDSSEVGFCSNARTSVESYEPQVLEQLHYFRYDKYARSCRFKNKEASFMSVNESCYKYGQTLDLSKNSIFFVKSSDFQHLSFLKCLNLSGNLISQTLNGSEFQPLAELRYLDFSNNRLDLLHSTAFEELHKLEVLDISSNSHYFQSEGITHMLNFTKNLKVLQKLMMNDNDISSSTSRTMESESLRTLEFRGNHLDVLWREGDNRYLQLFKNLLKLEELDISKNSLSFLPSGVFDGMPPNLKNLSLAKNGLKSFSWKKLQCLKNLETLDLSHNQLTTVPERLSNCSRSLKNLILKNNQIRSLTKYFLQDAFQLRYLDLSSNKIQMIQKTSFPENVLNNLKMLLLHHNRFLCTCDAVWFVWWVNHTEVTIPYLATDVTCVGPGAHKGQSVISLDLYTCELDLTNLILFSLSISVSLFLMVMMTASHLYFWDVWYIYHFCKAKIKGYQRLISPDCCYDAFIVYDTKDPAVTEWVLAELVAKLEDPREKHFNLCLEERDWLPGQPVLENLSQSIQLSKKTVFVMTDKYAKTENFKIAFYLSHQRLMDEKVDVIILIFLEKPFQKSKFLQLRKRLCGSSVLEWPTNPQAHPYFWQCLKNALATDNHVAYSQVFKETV

IC50 [1] [nM]	IC50 [2] [nM]	IC50 [3] [nM]	SMILES
43	43	1380	COc1ccc(-c2[nH]c3ccc(C(=O)N4C[C@@H]5C[C@H]4CN5)cc3c2C(C)C)cc1OC [Example 5, ((1S,4S)-2,5-diazabicyclo[2.2.1]heptan-2-yl)(2-(3,4-dimethoxyphenyl)-3-isopropyl-1H-indol-5-yl)methanone]
156	16	5880	CCc1c(-c2ccc(OC)c(OC)c2)[nH]c2ccc(C(=O)N(C)CCCN(C)C)cc12 [Example 74, 2-(3,4-dimethoxyphenyl)-N-(3-(dimethylamino)propyl)-3-ethyl-N-methyl-1H-indole-5-carboxamide]
914	217	5860	COc1ccc(-c2[nH]c3ccc(C(=O)N4CC5CN(C(=O)CN(C)C)CC5C4)cc3c2CC(F)(F)F)cc1OC (stereo not drawn) [Example 89, 1-(5-(2-(3,4-dimethoxyphenyl)-3-(2,2,2-trifluoroethyl)-1H-indole-5-carbonyl)hexahydropyrrolo[3,4-c]pyrrol-2(1H)-yl)-2-(dimethylamino)ethan-1-one]
206	12	1810	CCc1c(-c2ccc(OC)c(OC)c2)[nH]c2ccc(C(=O)NCCC3CCCN3C)cc12 (stereo not drawn) [Example 54, 2-(3,4-dimethoxyphenyl)-3-ethyl-N-(2-(1-methylpyrrolidin-2-yl)ethyl)-1H-indole-5-carboxamide]
51	88	866	Cc1cc(-c2[nH]c3ccc(C(C)C(=O)N[C@@H]4CCCNC4)cc3c2C(C)C)ccn1 (stereo partly drawn) [Example 196, 2-(3-isopropyl-2-(2-methylpyridin-4-yl)-1H-indol-5-yl)-N—((R)-piperidin-3-yl)propanamide]
16	7.1	899	Cc1cc(-c2[nH]c3ccc(C(C)(C)C(=O)N[C@@H]4CCCC[C@H]4N)cc3c2C(C)C)ccn1 [Example 169, N—((R,2R)-2-aminocyclohexyl)-2-(3-isopropyl-2-(2-methylpyridin-4-yl)-1H-indol-5-yl)-2-methylpropanamide]
391	60	931	CCc1c(-c2ccc(OC)c(OC)c2)[nH]c2ccc(C(=O)NCc3ccc(N4CCNCC4)cc3)cc12 [Example 46, 2-(3,4-dimethoxyphenyl)-3-ethyl-N-(4-(piperazin-1-yl)benzyl)-1H-indole-5-carboxamide]
821	1470	5000	Cc1cc(-c2[nH]c3ccc(C(C)C(=O)NC[C@H]4CCNC4)cc3c2C(C)C)ccn1 (stereo partly drawn) [Example 212, 2-(3-isopropyl-2-(2-methylpyridin-4-yl)-1H-indol-5-yl)-N—(((S)-pyrrolidin-3-yl)methyl)propanamide]
4120	1620	10200	CCc1c(-c2ccc(OC)c(OC)c2)[nH]c2ccc(C(=O)N3CCN(c4ccc(C(F)(F)F)cn4)CC3)cc12 [Example 61, (2-(3,4-dimethoxyphenyl)-3-ethyl-1H-indol-5-yl)(4-(5-(trifluoromethyl)pyridin-2-yl)piperazin-1-yl)methanone]
203	147	3370	Cc1cc(-c2[nH]c3ccc(C(C)C(=O)NC4CCNCC4)cc3c2C(C)C)ccn1 (stereo not drawn) [Example 193, 2-(3-isopropyl-2-(2-methylpyridin-4-yl)-1H-indol-5-yl)-N-(piperidin-4-yl)propanamide]
19	23	727	CCN(CCN(C)C)C(=O)c1ccc2[nH]c(-c3cc(C)nc(C)c3)c(CC(F)F)c2c1 [Example 125, 3-(2,2-difluoroethyl)-N-(2-(dimethylamino)ethyl)-2-(2,6-dimethylpyridin-4-yl)-N-ethyl-1H-indole-5-carboxamide]
632	191	4160	CCc1c(-c2ccc(OC)c(OC)c2)[nH]c2ccc(C(=O)N3CC[C@H](N(C)C)C3)cc12 [Example 30, (S)-(2-(3,4-dimethoxyphenyl)-3-ethyl-1H-indol-5-yl)(3-(dimethylamino)pyrrolidin-1-yl)methanone]
